According to patent publication US8658642B2 (Axikin Pharmaceuticals, Inc., priority 2009, dated 2014):

What was measured:
CCR3 = target: T1, CCR3 (Homo sapiens, UniProt P51677); assay: CCR3 receptor binding assay ([125I]-labeled human eotaxin/CCL11 displacement on cells); conditions: 0.1 nM [125I]-labeled human eotaxin/CCL11, 2×10^5 cells/well, 60 min at room temperature
T1 sequence (P51677 1-355): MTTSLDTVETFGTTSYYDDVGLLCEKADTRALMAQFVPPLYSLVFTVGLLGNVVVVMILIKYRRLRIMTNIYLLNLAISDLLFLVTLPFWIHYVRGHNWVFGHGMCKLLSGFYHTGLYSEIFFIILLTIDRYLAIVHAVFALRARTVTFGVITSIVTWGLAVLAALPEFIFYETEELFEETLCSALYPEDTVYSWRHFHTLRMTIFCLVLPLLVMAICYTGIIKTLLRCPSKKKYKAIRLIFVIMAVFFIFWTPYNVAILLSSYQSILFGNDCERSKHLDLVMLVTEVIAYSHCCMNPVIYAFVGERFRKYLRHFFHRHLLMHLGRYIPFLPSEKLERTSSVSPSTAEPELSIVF
Outline: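 Cells (2×10^5/well) incubated 60 min at room temperature with 0.1 nM [125I]-human eotaxin/CCL11 in 25 mM HEPES pH 7.6, MgCl2, CaCl2, 0.5% BSA. Bound radioactivity counted after filtration and 0.5 M NaCl washes. Non-specific binding defined with 500 nM unlabeled eotaxin.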

| Ki (CCR3) | melting point | SMILES |
| --- | --- | --- |
| > 5 µM | 277 to 281 °C | CS(=O)(=O)N1CCN(S(=O)(=O)c2cc([N+](=O)[O-])ccc2Sc2cc(Cl)ccc2Cl)CC1 [Compound 202, 1-(2-(2,5-Dichlorophenylthio)-5-nitrophenylsulfonyl)-4-(methylsulfonyl)-piperazine] |
| > 5 µM | 231 to 234 °C | CN(C)S(=O)(=O)N1CCN(S(=O)(=O)c2cc([N+](=O)[O-])ccc2Sc2cc(Cl)ccc2Cl)CC1 [Compound 203, 4-(2-(2,5-Dichlorophenylthio)-5-nitrophenylsulfonyl)-N,N-dimethyl-piperazine-1-sulfonamide] |
| > 5 µM | 236 to 239 °C | O=[N+]([O-])c1ccc(Sc2cc(Cl)ccc2Cl)c(S(=O)(=O)N2CCN(S(=O)(=O)c3ccccc3)CC2)c1 [Compound 204, 1-(2-(2,5-Dichlorophenylthio)-5-nitrophenylsulfonyl)-4-(phenylsulfonyl)-piperazine] |
| > 5 µM | 264 to 267 °C | O=[N+]([O-])c1ccc(Sc2cc(Cl)ccc2Cl)c(S(=O)(=O)N2CCN(S(=O)(=O)c3ccc(C(F)(F)F)cc3)CC2)c1 [Compound 205, 1-(2-(2,5-dichlorophenylthio)-5-nitrophenylsulfonyl)-4-(4-(trifluoromethyl)phenylsulfonyl)piperazine] |
